# In patent EP1617853B1, “ISOLATION OF THE HEPATOPROTECTIVE AGENT ACTEOSIDE FROM COLERBROKEA OPPOSITIFOLIA” (COUNCIL OF SCIENTIFIC AND INDUSTRIAL RESEARCH, priority 2003, dated 2004):
# Test system: CCl4 induced hepatic injury
# Assay: Hepatoprotective potential against CCl4 induced hepatic injury (prophylactic)
# Format: in vivo, Rodents
# Settings: for ALP % protection / Albumin % protection / Bilirubin % protection / GOT % protection / GPT % protection / GSH % protection / LP % protection / TG % protection: value within parenthesis
# Text: The compound has been bioevaluated for hepatoprotective/antihepatotoxic activity by using a comprehensive study design annexed herewith as Annexure-2. The parameters studied during the bioevaluation to establish the bioefficacy and optimum dose were preferred using the kits (Clonital, Italy and Accurex Biomedical Pvt. Ltd Thane). The list of the parameters is given in Annexure-2 appended herewith. The dose response graphs with respect to different parameters in comparison with the standard drug with silymarin and glycyrrhizin are given in Annexure-3 appended herewith.
# Hepatoprotective activity (H) was calculated by the following equation : H = [1-(TC-V/VC-V)]x100 [formula]
# Where TC, VC, and V are drug + toxin, vehicle + toxin and vehicle treated groups of animals respectively. Table-1: Hepatoprotective potential of Acteoside against CCl4 induced hepatic injury in Rodents Prophylactic).
# [1] = 100 mg/kg p.o. + CCl4 1 ml/kg p.o., prophylactic, mean ± SE of six animals
# [2] = 100 mg/kg p.o. + CCl4 1 ml/kg p.o., prophylactic, mean ± SE of six animals, unit = µ mole pyruvate/min/L
# [3] = 100 mg/kg p.o. + CCl4 1 ml/kg p.o., prophylactic
# [4] = 0.625 mg/kg p.o. + CCl4 1 ml/kg p.o., prophylactic, mean ± SE of six animals
# [5] = 0.625 mg/kg p.o. + CCl4 1 ml/kg p.o., prophylactic
# [6] = 1.25 mg/kg p.o. + CCl4 1 ml/kg p.o., prophylactic, mean ± SE of six animals
# [7] = 1.25 mg/kg p.o. + CCl4 1 ml/kg p.o., prophylactic
# [8] = 2.5 mg/kg p.o. + CCl4 1 ml/kg p.o., prophylactic, mean ± SE of six animals
# [9] = 2.5 mg/kg p.o. + CCl4 1 ml/kg p.o., prophylactic
# [10] = 5.0 mg/kg p.o. + CCl4 1 ml/kg p.o., prophylactic, mean ± SE of six animals
# [11] = 5.0 mg/kg p.o. + CCl4 1 ml/kg p.o., prophylactic
# [12] = Acteoside only (Per-se), 5 mg/kg p.o., no CCl4, mean ± SE of six animals
smiles,measurement,setting,value
"CC1(C)[C@@H](O[C@H]2O[C@H](C(=O)O)[C@@H](O)[C@H](O)[C@H]2O[C@@H]2O[C@H](C(=O)O)[C@@H](O)[C@H](O)[C@H]2O)CC[C@]2(C)[C@H]3C(=O)C=C4[C@@H]5C[C@@](C)(C(=O)O)CC[C@]5(C)CC[C@@]4(C)[C@]3(C)CC[C@@H]12 [Glycyrrhizin, reference compound]",Hepatic parameters GSH (glutathione),[1],5.96 ±0.26 µ mole GSH/g liver
same,Hepatic parameters LP (lipid peroxidation),[1],54.37 ± 4.32 n mole MDA/g liver
same,Serum parameter ALP,[1],55.63 ± 3.52 µ mole of p-nitrophenol formed /min/L
same,Serum parameter Albumin,[1],3.30 ± 0.12 g %
same,Serum parameter Bilirubin,[1],0.55 ± 0.04 mg %
same,Serum parameter TG,[1],65.31 ± 3.69 mg %
same,Serum parameter GOT,[2],494.27 ± 36.28 Units
same,Serum parameter GPT,[2],746.87 ± 49.77 Units
same,ALP % protection,[3],46.48%
same,Albumin % protection,[3],38.57%
same,Bilirubin % protection,[3],42.85%
same,GOT % protection,[3],56.44%
same,GPT % protection,[3],53.87%
same,GSH % protection,[3],53.55%
same,LP % protection,[3],56.08%
same,TG % protection,[3],42.07%
"C[C@@H]1O[C@@H](O[C@@H]2[C@@H](O)[C@H](OCCc3ccc(O)c(O)c3)O[C@H](CO)[C@H]2OC(=O)/C=C/c2ccc(O)c(O)c2)[C@H](O)[C@H](O)[C@H]1O [Acteoside, β-(3',4'-dihydroxyphenyl) ethyl -O-α-L-rhamnopyranosyl (1→3)-β-D-(4-O-caffeoyl)-glucopyranoside]",Hepatic parameters GSH (glutathione),[4],4.66±0.28 µ mole GSH/g liver
same,Hepatic parameters LP (lipid peroxidation),[4],61.08±3.39 n mole MDA/g liver
same,Serum parameter ALP,[4],66.80±3.53 µ mole of p-nitrophenol formed /min/L
same,Serum parameter Albumin,[4],3.06±0.07 g %
same,Serum parameter Bilirubin,[4],0.70±0.03 mg %
same,Serum parameter TG,[4],80.15±3.53 mg %
same,ALP % protection,[5],21.48%
same,Albumin % protection,[5],21.43%
same,Bilirubin % protection,[5],12.24%
same,GOT % protection,[5],36.64%
same,GPT % protection,[5],39.44%
same,GSH % protection,[5],27.86%
same,LP % protection,[5],43.53%
same,TG % protection,[5],17.63%
same,Hepatic parameters GSH (glutathione),[6],5.93±0.32 µ mole GSH/g liver
same,Hepatic parameters LP (lipid peroxidation),[6],52.61±2.25 n mole MDA/g liver
same,Serum parameter ALP,[6],59.10±3.09 µ mole of p-nitrophenol formed /min/L
same,Serum parameter Albumin,[6],3.25±0.14 g %
same,Serum parameter Bilirubin,[6],0.59±0.03 mg %
same,Serum parameter TG,[6],74.38±3.78 mg %
same,ALP % protection,[7],38.72%
same,Albumin % protection,[7],35.00%
same,Bilirubin % protection,[7],34.69%
same,GOT % protection,[7],55.43%
same,GPT % protection,[7],51.01%
same,GSH % protection,[7],52.96%
same,LP % protection,[7],59.38%
same,TG % protection,[7],27.13%
same,Hepatic parameters GSH (glutathione),[8],6.72±0.28 µ mole GSH/g liver
same,Hepatic parameters LP (lipid peroxidation),[8],45.46±2.79 n mole MDA/g liver
same,Serum parameter ALP,[8],51.20±1.42 µ mole of p-nitrophenol formed /min/L
same,Serum parameter Albumin,[8],3.55±0.22 g %
same,Serum parameter Bilirubin,[8],0.50±0.03 mg %
same,Serum parameter TG,[8],59.85±1.88 mg %
same,ALP % protection,[9],56.40%
same,Albumin % protection,[9],56.43%
same,Bilirubin % protection,[9],53.06%
same,GOT % protection,[9],58.92%
same,GPT % protection,[9],59.79%
same,GSH % protection,[9],68.57%
same,LP % protection,[9],72.76%
same,TG % protection,[9],51.06%
same,Hepatic parameters GSH (glutathione),[10],7.02±0.46 µ mole GSH/g liver
same,Hepatic parameters LP (lipid peroxidation),[10],44.22±1.66 n mole MDA/g liver
same,Serum parameter ALP,[10],46.37±1.89 µ mole of p-nitrophenol formed /min/L
same,Serum parameter Albumin,[10],3.91±0.12 g %
same,Serum parameter Bilirubin,[10],0.42±0.02 mg %
same,Serum parameter TG,[10],49.31±1.47 mg %
same,ALP % protection,[11],67.21%
same,Albumin % protection,[11],32.14%
same,Bilirubin % protection,[11],69.38%
same,GOT % protection,[11],70.49%
same,GPT % protection,[11],66.08%
same,GSH % protection,[11],74.50%
same,LP % protection,[11],75.07%
same,TG % protection,[11],68.42%
same,Hepatic parameters GSH (glutathione),[12],8.33±0.33 µ mole GSH/g liver
same,Hepatic parameters LP (lipid peroxidation),[12],30.52±1.38 n mole MDA/g liver
same,Serum parameter ALP,[12],31.87±2.15 µ mole of p-nitrophenol formed /min/L
same,Serum parameter Albumin,[12],4.66±0.18 g %
same,Serum parameter Bilirubin,[12],0.27±0.02 mg %
same,Serum parameter TG,[12],31.10±2.39 mg %
same,Serum parameter GOT,"Acteoside only (Per-se), 5 mg/kg p.o., no CCl4, mean ± SE of six animals, unit = µ mole pyruvate/min/L",94.71±5.29 Units
same,overall percent protection,"with reference to all the parameters studied, CCl4, dose of 1.25 mg upto 5 mg/kg",40-80%
